From patent publication US10253004B2, “Indanylaminopyrazinylcyclopropanecarboxylic acids, pharmaceutical compositions and uses thereof” (Boehringer Ingelheim International GmbH, priority 2017, dated 2019) come the findings set out here.

For orientation: EC50 means the concentration at which the effect is half-maximal.

The assay deals with human GPR40 receptor (Homo sapiens (Human), UniProt O14842). Nature of the assay: IP1 accumulation measurements using the IPOne assay system. It counts as cell-based. The note with it: 1321N1 cells stably expressing human GPR40; IP1 accumulation; read-out: EC50. How it is done: IP1 accumulation measurements using the IPOne assay system—1321N1 cells stably expressing human GPR40 receptor (Euroscreen, Belgium) are seeded 24 h before the assay in white 384-well plates in culture medium containing 10% FCS, 1% Na-Pyruvate and 400 μg/mL G418. IP1 is assayed according to the manufacturer's description (Cisbio Bioassays, France). In brief, the assay is started by substitution of the culture medium by stimulation buffer (Hepes 10 mM, CaCl2 1 mM, MgCl2 0.5 mM, KCl 4.2 mM, NaCl 146 mM, glucose 5.5 mM and LiCl 50 mM, pH 7.4). Cells are stimulated for 1 h at 37° C., 5% CO2 by addition of the compounds that are diluted in stimulation buffer containing LiCl. Assays are stopped by adding HTRF-conjugates (IP1-d2 and Anti-IP1 cryptate Tb) and lysis buffer, provided by the manufacturer. After an incubation time of 1 h at room temperature plates are measured using an EnVision™, Perkin Elmer. The obtained fluorescence ratios at 665/615 […] are then used to calculate the pEC50 values using Assay Explorer 3.3 Software (Accelrys, Inc.) by interpolation using an IP1 reference curve and subsequent sigmoidal curve fitting allowing for a variable hill slope.
human GPR40 receptor, sequence (O14842 whole entry): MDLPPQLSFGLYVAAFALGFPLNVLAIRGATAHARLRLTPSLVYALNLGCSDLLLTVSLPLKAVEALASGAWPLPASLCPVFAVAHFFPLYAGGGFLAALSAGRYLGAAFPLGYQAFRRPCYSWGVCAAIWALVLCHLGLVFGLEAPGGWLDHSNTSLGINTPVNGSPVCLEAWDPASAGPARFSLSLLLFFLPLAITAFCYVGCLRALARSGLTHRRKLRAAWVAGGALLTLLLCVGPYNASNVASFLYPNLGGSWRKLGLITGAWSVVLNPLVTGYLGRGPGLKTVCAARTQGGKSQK
Take `COc1cc(OC)c(F)c(-c2ccc(F)c3c2CC[C@H]3Nc2cnc([C@H]3C[C@@H]3C(=O)O)cn2)c1F` [Example 37]: the EC50 worked out at 0.081 µM.
With `Cc1cc(C#N)cc(C)c1-c1ccc(F)c2c1CC[C@H]2Nc1cnc([C@H]2C[C@@H]2C(=O)O)cn1` [Example 51] the figure was 0.009 µM; with `Cc1ccc(Cl)c(-c2ccc(F)c3c2CC[C@H]3Nc2cnc([C@H]3C[C@@H]3C(=O)O)cn2)c1Cl` [Example 21], 0.004 µM; with `Cc1cc(OCC2CCOC2)cc(C)c1-c1ccc(F)c2c1CC[C@H]2Nc1cnc([C@H]2C[C@@H]2C(=O)O)cn1` (stereo partly drawn) [Example 43], 0.018 µM.
Turning to `Cc1cc(-c2cnccn2)cc(C)c1-c1ccc(F)c2c1CC[C@H]2Nc1cnc([C@H]2C[C@@H]2C(=O)O)cn1` [Example 54], the EC50 is 0.004 µM.
With `CNC(=O)c1cc(C)c(-c2ccc(F)c3c2CC[C@H]3Nc2cnc([C@H]3C[C@@H]3C(=O)O)cn2)c(C)c1` [Example 45] the figure was 0.023 µM; with `O=C(O)[C@H]1C[C@@H]1c1cnc(N[C@@H]2CCc3c(-c4c(F)cc(OC5CC5)cc4F)ccc(F)c32)cn1` [Example 19], 0.056 µM.
For the compound `Cc1cc(-c2nnn(C)n2)cc(C)c1-c1cccc2c1CC[C@H]2Nc1cnc([C@H]2C[C@@H]2C(=O)O)cn1` [Example 6, (1S,2S)-2-(5-{(R)-4-[2,6-Dimethyl-4-(2-methyl-2H-tetrazol-5-yl)-phenyl]-indan-1-ylamino}-pyrazin-2-yl)-cyclopropanecarboxylic acid], the concentration for a half-maximal effect (EC50) worked out at 0.003 µM.
With `Cc1cc(-c2ccnn2C)cc(C)c1-c1ccc(F)c2c1CC[C@H]2Nc1cnc([C@H]2C[C@@H]2C(=O)O)cn1` [Example 36] the figure was 0.012 µM; with `Cc1cnc(-c2cc(C)c(-c3ccc(F)c4c3CC[C@H]4Nc3cnc([C@H]4C[C@@H]4C(=O)O)cn3)c(C)c2)nc1` [Example 38], 0.004 µM.
Turning to `COc1ccc(-c2cccc3c2CC[C@H]3Nc2cnc([C@H]3C[C@@H]3C(=O)O)cn2)cc1F` [Example 8, (1S,2S)-2-{5-[(R)-4-(3-Fluoro-4-methoxy-phenyl)-indan-1-ylamino]-pyrazin-2-yl}-cyclopropanecarboxylic acid], the concentration giving a half-maximal response (EC50) stood at 0.163 µM.
With `Cc1cc(OCCCS(C)(=O)=O)cc(C)c1-c1ccc(F)c2c1CC[C@H]2Nc1cnc([C@@H]2C[C@H]2C(=O)O)cn1` [Example 5, (1R,2R)-2-(5-{(R)-7-Fluoro-4-[4-(3-methanesulfonyl-propoxy)-2,6-dimethyl-phenyl]-indan-1-ylamino}-pyrazin-2-yl)-cyclopropanecarboxylic acid], the 50% effective concentration (EC50) was determined as 0.519 µM.
For the compound `CCc1cccc(CC)c1-c1ccc(F)c2c1CC[C@H]2Nc1cnc([C@H]2C[C@@H]2C(=O)O)cn1` [Example 49], the concentration giving a half-maximal response (EC50) turned out to be 0.004 µM.
In the case of `O=C(O)[C@H]1C[C@@H]1c1cnc(N[C@@H]2CCc3c(-c4c(F)cc(F)cc4F)ccc(F)c32)cn1` [Example 50], the 50% effective concentration (EC50) was found to be 0.074 µM.
With `O=C(O)[C@H]1C[C@@H]1c1cnc(N[C@@H]2CCc3c(-c4c(Cl)cccc4Cl)ccc(F)c32)cn1` [Example 25], the EC50 was 0.007 µM.
With `Cc1cc(OCC2(C)COC2)cc(C)c1-c1ccc(F)c2c1CC[C@H]2Nc1cnc([C@H]2C[C@@H]2C(=O)O)cn1` [Example 32] the figure was 0.007 µM; with `N#CC1(c2ccccc2-c2ccc(F)c3c2CC[C@H]3Nc2cnc([C@H]3C[C@@H]3C(=O)O)cn2)CC1` [Example 26], 0.367 µM; with `COc1cc(OC)c(-c2ccc(F)c3c2CC[C@H]3Nc2cnc([C@H]3C[C@@H]3C(=O)O)cn2)c(OC)c1` [Example 24], 0.128 µM.
With `O=C(O)[C@H]1C[C@@H]1c1cnc(N[C@@H]2CCc3c(-c4ccccc4C(F)(F)F)ccc(F)c32)cn1` [Example 17] the figure was 0.023 µM; with `Cc1cc(OCCC(C)(C)O)cc(C)c1-c1ccc(F)c2c1CC[C@H]2Nc1cnc([C@@H]2C[C@H]2C(=O)O)cn1` [Example 3, (1R,2R)-2-(5-{(R)-7-Fluoro-4-[4-(3-hydroxy-3-methyl-butoxy)-2,6-dimethyl-phenyl]-indan-1-ylamino}-pyrazin-2-yl)-cyclopropanecarboxylic acid], 0.164 µM.
Consider `COc1cc(-c2cc(C)c(-c3ccc(F)c4c3CC[C@H]4Nc3cnc([C@H]4C[C@@H]4C(=O)O)cn3)c(C)c2)ccn1` [Example 42], for which the EC50 was found to be 0.005 µM.
Take `Cc1cc(C(N)=O)cc(C)c1-c1ccc(F)c2c1CC[C@H]2Nc1cnc([C@H]2C[C@@H]2C(=O)O)cn1` [Example 10]: the EC50 was found to be 0.024 µM.
`Nc1cc(F)c(-c2ccc(F)c3c2CC[C@H]3Nc2cnc([C@H]3C[C@@H]3C(=O)O)cn2)c(F)c1` [Example 18]: the concentration for a half-maximal effect (EC50) was 0.15 µM.
As to `Cc1cc(CO)cc(C)c1-c1ccc(F)c2c1CC[C@H]2Nc1cnc([C@H]2C[C@@H]2C(=O)O)cn1` [Example 30], the EC50 amounted to 0.02 µM.
With `Cc1cc(O[C@@H]2CCOC2)cc(C)c1-c1ccc(F)c2c1CC[C@H]2Nc1cnc([C@H]2C[C@@H]2C(=O)O)cn1` [Example 27] the figure was 0.013 µM; with `COc1cc(C)c(-c2ccc(F)c3c2CC[C@H]3Nc2cnc([C@H]3C[C@@H]3C(=O)O)cn2)c(C)c1` [Example 22], 0.008 µM.
For `O=C(O)[C@H]1C[C@@H]1c1cnc(N[C@@H]2CCc3c(-c4ccc(-c5cnco5)cc4)ccc(F)c32)cn1` [Example 23], the concentration giving a half-maximal response (EC50) stood at 0.144 µM.
For `COc1cnc(-c2ccc(-c3cccc4c3CC[C@H]4Nc3cnc([C@H]4C[C@@H]4C(=O)O)cn3)cc2)cn1` [Example 9, (1S,2S)-2-(5-{(R)-4-[4-(5-Methoxy-pyrazin-2-yl)-phenyl]-indan-1-ylamino}-pyrazin-2-yl)-cyclopropanecarboxylic acid], the EC50 was determined as 0.035 µM.
With `O=C(O)[C@H]1C[C@@H]1c1cnc(N[C@@H]2CCc3c(-c4c(F)cccc4F)ccc(F)c32)cn1` [Example 16] the figure was 0.077 µM; with `Cc1cc(C(=O)N(C)C)cc(C)c1-c1ccc(F)c2c1CC[C@H]2Nc1cnc([C@H]2C[C@@H]2C(=O)O)cn1` [Example 20], 0.075 µM.
On to `COc1cc(F)c(-c2ccc(F)c3c2CC[C@H]3Nc2cnc([C@H]3C[C@@H]3C(=O)O)cn2)c(F)c1` [Example 44], for which the EC50 was found to be 0.09 µM.
As to `Cc1cccc(C)c1-c1ccc(F)c2c1CC[C@H]2Nc1cnc([C@H]2C[C@@H]2C(=O)O)cn1` [Example 15], the EC50 is 0.007 µM.
With `Cc1cc(OCC2CCOCC2)cc(C)c1-c1ccc(F)c2c1CC[C@H]2Nc1cnc([C@H]2C[C@@H]2C(=O)O)cn1` [Example 13] the figure was 0.004 µM.
With `CC(C)c1ccccc1-c1ccc(F)c2c1CC[C@H]2Nc1cnc([C@H]2C[C@@H]2C(=O)O)cn1` [Example 40] the figure was 0.016 µM; with `Cc1cc(OCC2(O)CCOCC2)cc(C)c1-c1ccc(F)c2c1CC[C@H]2Nc1cnc([C@H]2C[C@@H]2C(=O)O)cn1` [Example 41], 0.011 µM; with `COc1cc(OC)c(Cl)c(-c2ccc(F)c3c2CC[C@H]3Nc2cnc([C@H]3C[C@@H]3C(=O)O)cn2)c1Cl` [Example 29], 0.005 µM.
With `Cc1cc(-c2nnnn2CC(C)(C)O)cc(C)c1-c1ccc(F)c2c1CC[C@H]2Nc1cnc([C@H]2C[C@@H]2C(=O)O)cn1` [Example 39] the figure was 0.003 µM.
Turning to `Cc1cc(OCC2(O)CCS(=O)(=O)CC2)cc(C)c1-c1ccc(F)c2c1CC[C@H]2Nc1cnc([C@H]2C[C@@H]2C(=O)O)cn1` [Example 12], the half-maximal effective concentration (EC50) is 0.014 µM.
For `Cc1cc(-c2cc(=O)n(C)cn2)cc(C)c1-c1ccc(F)c2c1CC[C@H]2Nc1cnc([C@H]2C[C@@H]2C(=O)O)cn1` [Example 11], the EC50 amounted to 0.006 µM.
Consider `Cc1cc(-c2ccc(=O)n(C)c2)cc(C)c1-c1ccc(F)c2c1CC[C@H]2Nc1cnc([C@H]2C[C@@H]2C(=O)O)cn1` [Example 33], for which the half-maximal effective concentration (EC50) turned out to be 0.006 µM.
With `Cc1cc(OCC2(O)CCSCC2)cc(C)c1-c1ccc(F)c2c1CC[C@H]2Nc1cnc([C@H]2C[C@@H]2C(=O)O)cn1` [Example 52], the EC50 turned out to be 0.01 µM.
With `Cc1cc(OCC(=O)O)cc(C)c1-c1ccc(F)c2c1CC[C@H]2Nc1cnc([C@H]2C[C@@H]2C(=O)O)cn1` [Example 48] the figure was 0.839 µM; with `Cc1cc(OC2CCOCC2)cc(C)c1-c1ccc(F)c2c1CC[C@H]2Nc1cnc([C@H]2C[C@@H]2C(=O)O)cn1` [Example 31], 0.009 µM; with `Cc1cc(C(=O)O)cc(C)c1-c1ccc(F)c2c1CC[C@H]2Nc1cnc([C@H]2C[C@@H]2C(=O)O)cn1` [Example 14], 0.355 µM.
With `Cc1cc(OCCC(C)(C)O)cc(C)c1-c1ccc(F)c2c1CC[C@H]2Nc1cnc(C2C[C@@H]2C(=O)O)cn1` (stereo partly drawn) [Example 1, trans-2-(5-{(R)-7-Fluoro-4-[4-(3-hydroxy-3-methyl-butoxy)-2,6-dimethyl-phenyl]-indan-1-ylamino}-pyrazin-2-yl)-cyclopropanecarboxylic acid] the figure was 0.007 µM.
